In US10835533B2, “1 -((3S,4R)-4-(3-fluorophenyl)-1-(2-methoxyethyl)pyrrolidin-3-yl)-3-(4-methyl-3-(2-methylpyrimidin-5-yl)-1-phenyl-1H-pyrazol-5-yl)urea as a TrkA kinase inhibitor” (Array BioPharma Inc., priority 2014, dated 2020):

Assays:
Experiment in all cases: KinaseProfiler kinase profiling
Assay type in all cases: biochemical
Details in all cases: 10 μM, ATP near Km
[1] = target: T1, CLK2 (Homo sapiens, UniProt P49760)
T1 construct: purchased Millipore, Inc. (KinaseProfiler service)
Method: (§1) Compound 1 was tested for off-target kinase activity at a concentration of 10 μM by Millipore, Inc. in their KinaseProfiler™ service against all the kinases available in their full kinase panel. Compound 1 was run in duplicate at a concentration of ATP near the Km for each individual kinase according to Millipore's specifications. Data are reported as percent of control (POC) and are the average of the two replicates.

[2] = target: T2, c-RAF (Homo sapiens, UniProt P04049)
T2 construct: purchased Millipore, Inc. (KinaseProfiler service)
Method: as §1

[3] = target: T3, CDK2/cyclinE (Homo sapiens, UniProt P24941)
T3 construct: purchased Millipore, Inc. (KinaseProfiler service)
Method: as §1

[4] = target: T4, PDGFRbeta (Homo sapiens, UniProt P09619)
T4 construct: purchased Millipore, Inc. (KinaseProfiler service)
Method: as §1

[5] = target: T5, Bmx (Homo sapiens, UniProt P51813)
T5 construct: purchased Millipore, Inc. (KinaseProfiler service)
Method: as §1

[6] = target: T6, JNK3 (Homo sapiens, UniProt P53779)
T6 construct: purchased Millipore, Inc. (KinaseProfiler service)
Method: as §1

[7] = target: T7, EphB1 (Homo sapiens, UniProt P54762)
T7 construct: purchased Millipore, Inc. (KinaseProfiler service)
Method: as §1

[8] = target: T8, PKCzeta (Homo sapiens, UniProt Q05513)
T8 construct: purchased Millipore, Inc. (KinaseProfiler service)
Method: as §1

[9] = target: T9, EphA7 (Homo sapiens, UniProt Q15375)
T9 construct: purchased Millipore, Inc. (KinaseProfiler service)
Method: as §1

[10] = target: T10, PKCiota (Homo sapiens, UniProt P41743)
T10 construct: purchased Millipore, Inc. (KinaseProfiler service)
Method: as §1

[11] = target: T11, ERK2 (Homo sapiens, UniProt P28482)
T11 construct: purchased Millipore, Inc. (KinaseProfiler service)
Method: as §1

[12] = target: T12, MARK1 (Homo sapiens, UniProt Q9P0L2)
T12 construct: purchased Millipore, Inc. (KinaseProfiler service)
Method: as §1

[13] = target: T13, Flt4 (Homo sapiens, UniProt P35916)
T13 construct: purchased Millipore, Inc. (KinaseProfiler service)
Method: as §1

[14] = target: T14, Rsk4 (Homo sapiens, UniProt Q9UK32)
T14 construct: purchased Millipore, Inc. (KinaseProfiler service)
Method: as §1

[15] = target: T15, EphB3 (Homo sapiens, UniProt P54753)
T15 construct: purchased Millipore, Inc. (KinaseProfiler service)
Method: as §1

[16] = target: T16, Flt3 (Homo sapiens, UniProt P36888)
T16 construct: purchased Millipore, Inc. (KinaseProfiler service)
Method: as §1

[17] = target: T17, ARK5 (Homo sapiens, UniProt O60285)
T17 construct: purchased Millipore, Inc. (KinaseProfiler service)
Method: as §1

[18] = target: T18, MSK1 (Homo sapiens, UniProt O75582)
T18 construct: purchased Millipore, Inc. (KinaseProfiler service)
Method: as §1

[19] = target: T19, CK1gamma3 (Homo sapiens, UniProt Q9Y6M4)
T19 construct: purchased Millipore, Inc. (KinaseProfiler service)
Method: as §1

[20] = target: T20, Rsk1 (Homo sapiens, UniProt Q15418)
T20 construct: purchased Millipore, Inc. (KinaseProfiler service)
Method: as §1

[21] = target: T21, AKT2 (Homo sapiens, UniProt P31751)
T21 construct: purchased Millipore, Inc. (KinaseProfiler service)
Method: as §1

[22] = target: T22, MST3 (Homo sapiens, UniProt Q9Y6E0)
T22 construct: purchased Millipore, Inc. (KinaseProfiler service)
Method: as §1

[23] = target: T23, Fes (Homo sapiens, UniProt P07332)
T23 construct: purchased Millipore, Inc. (KinaseProfiler service)
Method: as §1

[24] = target: T24, SRPK2 (Homo sapiens, UniProt P78362)
T24 construct: purchased Millipore, Inc. (KinaseProfiler service)
Method: as §1

[25] = target: T25, TSSK1 (Homo sapiens, UniProt Q9BXA7)
T25 construct: purchased Millipore, Inc. (KinaseProfiler service)
Method: as §1

[26] = target: T26, Abl2 (Homo sapiens, UniProt P42684)
T26 construct: purchased Millipore, Inc. (KinaseProfiler service)
Method: as §1

[27] = target: T27, PRKG1alpha (Homo sapiens, UniProt Q13976)
T27 construct: purchased Millipore, Inc. (KinaseProfiler service)
Method: as §1

[28] = target: T28, SRPK1 (Homo sapiens, UniProt Q96SB4)
T28 construct: purchased Millipore, Inc. (KinaseProfiler service)
Method: as §1

[29] = target: T29, STK33 (Homo sapiens, UniProt Q9BYT3)
T29 construct: purchased Millipore, Inc. (KinaseProfiler service)
Method: as §1

[30] = target: T30, MEK1 (Homo sapiens, UniProt Q02750)
T30 construct: purchased Millipore, Inc. (KinaseProfiler service)
Method: as §1

[31] = target: T31, Pim-3 (Homo sapiens, UniProt Q86V86)
T31 construct: purchased Millipore, Inc. (KinaseProfiler service)
Method: as §1

[32] = target: T32, p38delta (Homo sapiens, UniProt O15264)
T32 construct: purchased Millipore, Inc. (KinaseProfiler service)
Method: as §1

[33] = target: T33, CAMK2b (Homo sapiens, UniProt Q13554)
T33 construct: purchased Millipore, Inc. (KinaseProfiler service)
Method: as §1

[34] = target: T34, Fms (Homo sapiens, UniProt P07333)
T34 construct: purchased Millipore, Inc. (KinaseProfiler service)
Method: as §1

[35] = target: T35, p70S6K (Homo sapiens, UniProt P23443)
T35 construct: purchased Millipore, Inc. (KinaseProfiler service)
Method: as §1

[36] = target: T36, FGFR2 (Homo sapiens, UniProt P21802)
T36 construct: purchased Millipore, Inc. (KinaseProfiler service)
Method: as §1

[37] = target: T37, Txk (Homo sapiens, UniProt P42681)
T37 construct: purchased Millipore, Inc. (KinaseProfiler service)
Method: as §1

[38] = target: T38, MAPKAP-K3 (Homo sapiens, UniProt Q16644)
T38 construct: purchased Millipore, Inc. (KinaseProfiler service)
Method: as §1

[39] = target: T39, Haspin (Homo sapiens, UniProt Q8TF76)
T39 construct: purchased Millipore, Inc. (KinaseProfiler service)
Method: as §1

[40] = target: T40, p38alpha (Homo sapiens, UniProt Q16539)
T40 construct: purchased Millipore, Inc. (KinaseProfiler service)
Method: as §1

[41] = target: T41, Mer (Homo sapiens, UniProt Q12866)
T41 construct: purchased Millipore, Inc. (KinaseProfiler service)
Method: as §1

T10 sequence (P41743 whole entry): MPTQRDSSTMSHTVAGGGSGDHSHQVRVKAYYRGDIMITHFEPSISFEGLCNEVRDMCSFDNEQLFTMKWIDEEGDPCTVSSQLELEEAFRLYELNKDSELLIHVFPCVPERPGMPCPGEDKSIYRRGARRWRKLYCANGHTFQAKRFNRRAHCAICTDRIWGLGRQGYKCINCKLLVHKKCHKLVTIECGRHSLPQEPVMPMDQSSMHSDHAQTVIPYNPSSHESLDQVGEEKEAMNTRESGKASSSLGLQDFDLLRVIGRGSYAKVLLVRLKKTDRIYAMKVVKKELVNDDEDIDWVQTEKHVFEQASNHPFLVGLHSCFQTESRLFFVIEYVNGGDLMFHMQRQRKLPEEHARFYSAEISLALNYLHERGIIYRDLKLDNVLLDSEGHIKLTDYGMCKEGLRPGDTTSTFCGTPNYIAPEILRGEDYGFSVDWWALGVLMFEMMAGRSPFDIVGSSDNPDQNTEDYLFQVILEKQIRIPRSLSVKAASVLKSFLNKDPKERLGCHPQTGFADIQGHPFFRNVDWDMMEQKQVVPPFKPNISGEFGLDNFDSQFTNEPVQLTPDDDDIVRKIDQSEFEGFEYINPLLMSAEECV
T15 sequence (P54753 34-998): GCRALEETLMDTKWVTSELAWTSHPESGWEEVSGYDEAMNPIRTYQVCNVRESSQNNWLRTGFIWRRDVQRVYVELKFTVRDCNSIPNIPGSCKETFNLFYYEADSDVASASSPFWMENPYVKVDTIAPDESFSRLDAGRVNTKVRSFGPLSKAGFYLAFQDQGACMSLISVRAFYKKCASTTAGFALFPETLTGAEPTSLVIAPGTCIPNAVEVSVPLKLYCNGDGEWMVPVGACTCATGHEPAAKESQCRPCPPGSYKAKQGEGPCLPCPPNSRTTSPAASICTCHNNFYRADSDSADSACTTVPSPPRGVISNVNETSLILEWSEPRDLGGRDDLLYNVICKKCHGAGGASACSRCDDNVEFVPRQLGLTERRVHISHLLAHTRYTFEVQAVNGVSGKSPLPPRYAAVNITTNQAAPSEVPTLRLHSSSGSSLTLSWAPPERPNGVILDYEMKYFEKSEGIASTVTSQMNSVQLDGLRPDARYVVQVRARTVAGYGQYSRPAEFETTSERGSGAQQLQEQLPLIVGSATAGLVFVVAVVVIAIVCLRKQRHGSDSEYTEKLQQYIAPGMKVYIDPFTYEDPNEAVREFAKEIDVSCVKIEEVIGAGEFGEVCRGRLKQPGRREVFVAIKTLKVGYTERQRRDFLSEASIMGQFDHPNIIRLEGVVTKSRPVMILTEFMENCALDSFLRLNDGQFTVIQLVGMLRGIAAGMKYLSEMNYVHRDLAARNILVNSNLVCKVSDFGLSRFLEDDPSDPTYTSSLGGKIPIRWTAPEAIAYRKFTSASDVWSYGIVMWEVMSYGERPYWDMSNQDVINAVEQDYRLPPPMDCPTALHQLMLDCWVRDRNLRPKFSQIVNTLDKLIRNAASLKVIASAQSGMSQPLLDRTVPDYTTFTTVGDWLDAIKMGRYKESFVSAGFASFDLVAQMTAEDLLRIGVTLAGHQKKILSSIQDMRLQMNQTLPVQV
T20 sequence (Q15418 whole entry): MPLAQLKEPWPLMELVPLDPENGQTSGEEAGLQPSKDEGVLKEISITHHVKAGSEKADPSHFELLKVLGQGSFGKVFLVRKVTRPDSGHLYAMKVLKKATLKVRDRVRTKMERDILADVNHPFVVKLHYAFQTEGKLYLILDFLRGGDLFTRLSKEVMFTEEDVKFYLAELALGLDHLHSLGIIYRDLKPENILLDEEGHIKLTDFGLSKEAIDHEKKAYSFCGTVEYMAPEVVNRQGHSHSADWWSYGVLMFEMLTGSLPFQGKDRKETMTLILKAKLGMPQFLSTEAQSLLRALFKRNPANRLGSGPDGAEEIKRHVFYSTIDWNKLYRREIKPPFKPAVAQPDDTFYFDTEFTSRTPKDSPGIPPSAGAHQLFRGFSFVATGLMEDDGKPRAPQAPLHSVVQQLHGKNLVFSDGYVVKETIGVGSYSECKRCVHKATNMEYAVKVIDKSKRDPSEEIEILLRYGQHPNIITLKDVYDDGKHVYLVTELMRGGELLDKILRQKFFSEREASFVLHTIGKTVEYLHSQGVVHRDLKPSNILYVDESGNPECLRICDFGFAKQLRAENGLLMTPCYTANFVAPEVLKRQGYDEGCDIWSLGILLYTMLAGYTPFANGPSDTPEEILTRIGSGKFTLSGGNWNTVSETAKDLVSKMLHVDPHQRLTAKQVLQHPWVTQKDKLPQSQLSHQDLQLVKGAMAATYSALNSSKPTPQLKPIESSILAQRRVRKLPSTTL
T17 sequence (O60285 whole entry): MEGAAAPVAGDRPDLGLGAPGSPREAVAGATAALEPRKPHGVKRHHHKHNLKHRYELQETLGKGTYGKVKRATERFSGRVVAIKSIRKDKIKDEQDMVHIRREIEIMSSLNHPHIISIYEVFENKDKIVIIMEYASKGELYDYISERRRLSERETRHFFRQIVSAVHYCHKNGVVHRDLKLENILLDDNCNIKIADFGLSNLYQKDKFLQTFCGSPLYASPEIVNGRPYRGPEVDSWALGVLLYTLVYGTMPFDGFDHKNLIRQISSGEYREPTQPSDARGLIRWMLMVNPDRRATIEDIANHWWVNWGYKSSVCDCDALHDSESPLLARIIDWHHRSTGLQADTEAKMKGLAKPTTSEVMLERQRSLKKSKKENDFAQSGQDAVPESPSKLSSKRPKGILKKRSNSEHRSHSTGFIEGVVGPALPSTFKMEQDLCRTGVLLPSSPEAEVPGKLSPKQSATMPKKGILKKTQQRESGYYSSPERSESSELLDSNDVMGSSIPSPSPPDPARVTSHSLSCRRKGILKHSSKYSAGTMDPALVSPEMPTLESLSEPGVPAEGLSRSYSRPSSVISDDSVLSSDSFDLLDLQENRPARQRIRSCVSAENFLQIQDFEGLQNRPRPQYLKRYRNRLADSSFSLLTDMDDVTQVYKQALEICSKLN
T30 sequence (Q02750 whole entry): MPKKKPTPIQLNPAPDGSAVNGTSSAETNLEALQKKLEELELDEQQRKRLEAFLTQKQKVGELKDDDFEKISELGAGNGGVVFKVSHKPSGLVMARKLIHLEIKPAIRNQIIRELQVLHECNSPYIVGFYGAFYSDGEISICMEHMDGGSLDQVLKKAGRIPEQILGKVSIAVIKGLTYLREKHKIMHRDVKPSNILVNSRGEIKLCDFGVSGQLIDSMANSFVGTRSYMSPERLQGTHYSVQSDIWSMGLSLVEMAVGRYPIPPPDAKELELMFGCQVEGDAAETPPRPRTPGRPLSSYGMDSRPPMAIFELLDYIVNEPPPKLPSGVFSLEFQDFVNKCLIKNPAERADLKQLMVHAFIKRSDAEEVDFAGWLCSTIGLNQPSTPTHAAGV
T4 sequence (P09619 33-1106): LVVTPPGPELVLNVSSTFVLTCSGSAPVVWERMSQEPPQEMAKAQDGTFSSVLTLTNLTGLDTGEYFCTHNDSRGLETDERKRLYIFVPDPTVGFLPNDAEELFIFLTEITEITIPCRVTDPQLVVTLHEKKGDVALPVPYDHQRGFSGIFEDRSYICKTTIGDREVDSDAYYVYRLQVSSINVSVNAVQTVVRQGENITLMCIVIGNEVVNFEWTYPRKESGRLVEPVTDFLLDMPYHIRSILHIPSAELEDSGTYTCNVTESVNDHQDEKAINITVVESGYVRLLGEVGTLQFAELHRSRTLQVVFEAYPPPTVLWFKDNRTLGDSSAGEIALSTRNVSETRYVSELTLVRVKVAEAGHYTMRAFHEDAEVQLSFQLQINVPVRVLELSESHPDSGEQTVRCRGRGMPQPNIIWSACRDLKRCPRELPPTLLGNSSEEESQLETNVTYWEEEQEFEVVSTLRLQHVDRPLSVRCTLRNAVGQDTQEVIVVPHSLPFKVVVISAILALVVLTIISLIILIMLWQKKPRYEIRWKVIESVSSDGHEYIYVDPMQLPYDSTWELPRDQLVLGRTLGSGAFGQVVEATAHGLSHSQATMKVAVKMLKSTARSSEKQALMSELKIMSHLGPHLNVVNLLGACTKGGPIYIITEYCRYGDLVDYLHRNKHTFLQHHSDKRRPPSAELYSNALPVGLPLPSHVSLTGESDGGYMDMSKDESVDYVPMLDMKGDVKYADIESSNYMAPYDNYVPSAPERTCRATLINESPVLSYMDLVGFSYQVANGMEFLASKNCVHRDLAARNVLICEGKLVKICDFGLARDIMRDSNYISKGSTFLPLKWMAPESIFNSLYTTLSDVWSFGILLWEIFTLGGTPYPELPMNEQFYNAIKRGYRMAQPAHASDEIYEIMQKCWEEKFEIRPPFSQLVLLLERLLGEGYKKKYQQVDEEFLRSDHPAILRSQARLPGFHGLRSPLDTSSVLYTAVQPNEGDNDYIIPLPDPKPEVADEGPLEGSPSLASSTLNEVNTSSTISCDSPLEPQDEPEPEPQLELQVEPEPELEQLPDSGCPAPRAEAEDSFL
T11 sequence (P28482 whole entry): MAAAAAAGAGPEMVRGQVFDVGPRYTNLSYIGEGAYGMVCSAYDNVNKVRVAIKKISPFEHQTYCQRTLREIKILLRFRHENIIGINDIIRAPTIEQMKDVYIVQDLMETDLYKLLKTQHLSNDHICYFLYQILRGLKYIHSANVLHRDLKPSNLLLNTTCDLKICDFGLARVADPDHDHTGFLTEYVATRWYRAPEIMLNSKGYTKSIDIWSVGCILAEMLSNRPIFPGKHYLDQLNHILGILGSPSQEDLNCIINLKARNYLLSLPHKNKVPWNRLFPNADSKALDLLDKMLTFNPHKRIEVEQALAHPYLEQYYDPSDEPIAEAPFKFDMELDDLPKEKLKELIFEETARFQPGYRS

**Q.** How did the “Avg POC” value [1] turn out when COCCN1C[C@@H](NC(=O)Nc2c(C)c(-c3cnc(C)nc3)nn2-c2ccccc2)[C@H](c2cccc(F)c2)C1 [Compound 1, 1-((3S,4R)-4-(3-fluorophenyl)-1-(2-methoxyethyl)pyrrolidin-3-yl)-3-(4-methyl-3-(2-methylpyrimidin-5-yl)-1-phenyl-1H-pyrazol-5-yl)urea] was run?
**A.** 102 POC

**Q.** What about the “Avg POC” value [2] of the same molecule?
**A.** 101 POC

**Q.** What about the “Avg POC” value [3] of the same molecule?
**A.** 102 POC

**Q.** And the “Avg POC” value [4]?
**A.** 96 POC

**Q.** And the “Avg POC” value [5]?
**A.** 91.5 POC

**Q.** What about the “Avg POC” value [6] of the same molecule?
**A.** 114.5 POC

**Q.** And the “Avg POC” value [7]?
**A.** 105.5 POC

**Q.** And the “Avg POC” value [8]?
**A.** 97.5 POC

**Q.** What about the “Avg POC” value [9] of the same molecule?
**A.** 109 POC

**Q.** What about the “Avg POC” value [10] of the same molecule?
**A.** 91 POC

**Q.** And the “Avg POC” value [11]?
**A.** 100 POC

**Q.** And the “Avg POC” value [12]?
**A.** 100 POC

**Q.** And the “Avg POC” value [13]?
**A.** 98.5 POC

**Q.** And the “Avg POC” value [14]?
**A.** 105.5 POC

**Q.** What about the “Avg POC” value [15] of the same molecule?
**A.** 89.5 POC

**Q.** What about the “Avg POC” value [16] of the same molecule?
**A.** 102 POC

**Q.** And the “Avg POC” value [17]?
**A.** 104.5 POC

**Q.** And the “Avg POC” value [18]?
**A.** 129 POC

**Q.** And the “Avg POC” value [19]?
**A.** 104.5 POC

**Q.** What about the “Avg POC” value [20] of the same molecule?
**A.** 102 POC

**Q.** And the “Avg POC” value [21]?
**A.** 104.5 POC

**Q.** And the “Avg POC” value [22]?
**A.** 103.5 POC

**Q.** And the “Avg POC” value [23]?
**A.** 102.5 POC

**Q.** And the “Avg POC” value [24]?
**A.** 96.5 POC

**Q.** And the “Avg POC” value [25]?
**A.** 104 POC

**Q.** What about the “Avg POC” value [26] of the same molecule?
**A.** 110.5 POC

**Q.** And the “Avg POC” value [27]?
**A.** 109.5 POC

**Q.** And the “Avg POC” value [28]?
**A.** 96 POC

**Q.** And the “Avg POC” value [29]?
**A.** 101 POC

**Q.** And the “Avg POC” value [30]?
**A.** 103.5 POC

**Q.** And the “Avg POC” value [31]?
**A.** 106.5 POC

**Q.** What about the “Avg POC” value [32] of the same molecule?
**A.** 105 POC

**Q.** And the “Avg POC” value [33]?
**A.** 147.5 POC

**Q.** And the “Avg POC” value [34]?
**A.** 103 POC

**Q.** And the “Avg POC” value [35]?
**A.** 104 POC

**Q.** And the “Avg POC” value [36]?
**A.** 99 POC

**Q.** What about the “Avg POC” value [37] of the same molecule?
**A.** 67 POC

**Q.** What about the “Avg POC” value [38] of the same molecule?
**A.** 99 POC

**Q.** And the “Avg POC” value [39]?
**A.** 96.5 POC

**Q.** What about the “Avg POC” value [40] of the same molecule?
**A.** 107.5 POC

**Q.** What about the “Avg POC” value [41] of the same molecule?
**A.** 147.5 POC
